Where two headings read alike, the source gives them in different places.
Tests used:
[1] = target: CK1e (Homo sapiens, UniProt P49674); assay: binding to immobilized V16742 (IVA1/IVA2, HeLa lysate, MS)
[2] = target: T1, GAK (Homo sapiens, UniProt O14976); assay: as above
T1 sequence (O14976 1-1311): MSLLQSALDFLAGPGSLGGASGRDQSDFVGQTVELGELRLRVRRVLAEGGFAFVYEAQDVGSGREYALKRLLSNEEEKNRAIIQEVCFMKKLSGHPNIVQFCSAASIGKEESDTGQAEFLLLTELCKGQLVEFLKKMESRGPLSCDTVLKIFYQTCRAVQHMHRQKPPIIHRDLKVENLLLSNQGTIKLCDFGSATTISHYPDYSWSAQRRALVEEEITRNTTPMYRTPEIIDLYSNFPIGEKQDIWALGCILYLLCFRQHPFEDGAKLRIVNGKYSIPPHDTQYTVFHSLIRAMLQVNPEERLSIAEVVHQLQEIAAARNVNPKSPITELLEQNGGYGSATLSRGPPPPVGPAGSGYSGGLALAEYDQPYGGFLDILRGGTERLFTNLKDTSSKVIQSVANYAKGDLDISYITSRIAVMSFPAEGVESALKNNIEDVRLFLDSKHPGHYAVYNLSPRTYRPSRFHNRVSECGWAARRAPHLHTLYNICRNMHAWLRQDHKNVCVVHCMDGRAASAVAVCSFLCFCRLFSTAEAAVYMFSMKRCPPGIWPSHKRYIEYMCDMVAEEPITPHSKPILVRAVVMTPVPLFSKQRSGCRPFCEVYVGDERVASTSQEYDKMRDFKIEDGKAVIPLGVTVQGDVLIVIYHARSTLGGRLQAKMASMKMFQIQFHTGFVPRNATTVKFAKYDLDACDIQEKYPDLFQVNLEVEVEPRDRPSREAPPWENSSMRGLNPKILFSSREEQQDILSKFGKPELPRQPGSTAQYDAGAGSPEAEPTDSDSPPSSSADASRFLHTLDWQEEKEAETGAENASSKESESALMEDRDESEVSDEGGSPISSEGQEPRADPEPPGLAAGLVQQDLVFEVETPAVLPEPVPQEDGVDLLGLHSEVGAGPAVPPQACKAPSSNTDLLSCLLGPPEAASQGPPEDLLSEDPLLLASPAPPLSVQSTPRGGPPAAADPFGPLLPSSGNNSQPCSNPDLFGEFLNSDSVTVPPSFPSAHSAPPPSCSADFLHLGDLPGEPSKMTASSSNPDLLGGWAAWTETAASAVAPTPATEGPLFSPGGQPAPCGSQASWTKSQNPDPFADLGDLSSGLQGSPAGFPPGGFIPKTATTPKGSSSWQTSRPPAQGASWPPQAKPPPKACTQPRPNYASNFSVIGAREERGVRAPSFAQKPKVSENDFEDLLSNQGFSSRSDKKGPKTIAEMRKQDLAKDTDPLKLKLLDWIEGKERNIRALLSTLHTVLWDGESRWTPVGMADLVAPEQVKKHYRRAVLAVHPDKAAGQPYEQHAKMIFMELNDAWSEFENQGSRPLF

[3] = target: SPR (Homo sapiens, UniProt P35270)
SPR, sequence (P35270 whole entry): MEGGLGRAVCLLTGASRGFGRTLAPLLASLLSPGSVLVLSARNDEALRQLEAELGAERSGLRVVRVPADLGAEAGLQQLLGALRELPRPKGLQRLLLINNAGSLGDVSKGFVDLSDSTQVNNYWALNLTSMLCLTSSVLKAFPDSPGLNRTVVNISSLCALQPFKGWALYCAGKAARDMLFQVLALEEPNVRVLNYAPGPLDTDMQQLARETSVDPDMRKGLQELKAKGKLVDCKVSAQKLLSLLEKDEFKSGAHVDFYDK

CK1e, sequence (P49674 whole entry): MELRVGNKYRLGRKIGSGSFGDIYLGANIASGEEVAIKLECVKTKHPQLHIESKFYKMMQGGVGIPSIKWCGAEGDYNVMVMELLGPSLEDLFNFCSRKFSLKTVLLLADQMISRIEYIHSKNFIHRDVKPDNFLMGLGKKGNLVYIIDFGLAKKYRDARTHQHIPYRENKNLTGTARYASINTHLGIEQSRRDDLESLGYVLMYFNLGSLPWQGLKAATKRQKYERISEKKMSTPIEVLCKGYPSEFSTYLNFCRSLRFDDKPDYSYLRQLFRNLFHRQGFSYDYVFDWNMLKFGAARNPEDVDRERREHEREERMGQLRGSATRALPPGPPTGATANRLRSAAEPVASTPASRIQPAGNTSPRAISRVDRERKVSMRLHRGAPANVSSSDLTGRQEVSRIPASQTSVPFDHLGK

CC(C)n1c(=O)ccc2cnc(Nc3ccc(OCCN)cc3)nc21 [compound 16742]
Kd [1]: 13 µM
Percent bound at 1.87 μM 16742 conc ([1]; CK1e, EXPERIMENT 1): 6.91%
Percent bound at 8.74 μM 16742 conc ([1]; CK1e, EXPERIMENT 1): 34.02%
Percent bound at 52 μM 16742 conc ([1]; CK1e, EXPERIMENT 1): 79.64%
Percent bound at 1.87 μM 16742 conc ([1]; CK1e, EXPERIMENT 2): 7.41%
Percent bound at 8.74 μM 16742 conc ([1]; CK1e, EXPERIMENT 2): 37.16%
Percent bound at 52 μM 16742 conc ([1]; CK1e, EXPERIMENT 2): 88.21%
Kd ([1]; Kd, CK1e): 14.5 µM
Kd ([1]; Kd, CK1e, EXPERIMENT 1): 16.1 µM
Percent bound at 1.87 μM 16742 conc ([2]; EXPERIMENT 1): 8.35%
Percent bound at 8.74 μM 16742 conc ([2]; EXPERIMENT 1): 29.77%
Percent bound at 52 μM 16742 conc ([2]; EXPERIMENT 1): 69.07%
Kd ([2]; EXPERIMENT 1, read-out: Kd): 21.9 µM
Percent bound at 1.87 μM 16742 conc ([2]; EXPERIMENT 2): 6.15%
Percent bound at 8.74 μM 16742 conc ([2]; EXPERIMENT 2): 27.34%
Percent bound at 52 μM 16742 conc ([2]; EXPERIMENT 2): 63.94%
Kd ([2]; EXPERIMENT 2, read-out: Kd): 26.7 µM
Kd ([2]; read-out: Kd Avg): 24.3 µM

COc1cc2ncnc(Nc3ccc(F)c(Cl)c3)c2cc1OCCCN1CCOCC1 [gefitinib]
rAVERAGE (10 nM/0 nM Gef.) [3]: 1.04
rAVERAGE (100 nM/0 nM Gef.) [3]: 1.10
rAVERAGE (1000 nM/0 nM Gef.) [3]: 1.01
rAVERAGE (10000 nM/0 nM Gef.) [3]: 0.77
